From ChEMBL document CHEMBL1201862, “PubChem BioAssay data set” (2004)
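Tested at 5 concentrations; 48 h exposure; 96-well plates; endpoints linearly interpolated, else capped at highest concentration. GI50: concentration for 50% inhibition of growth.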 Activity calls are given as the source filed them. Rule as the data show it: active = GI50 up to about 1.1 µM and inactive = higher.

Tests used:
Assay in all cases: growth of human tumour cells (NCI), 48 h
OVCAR-5 = system: OVCAR-5
HT-29 = system: HT-29
EKVX = system: EKVX
CCRF-CEM = system: CCRF-CEM
SF-268 = system: SF-268
CAKI-1 = system: CAKI-1
NCI-H522 = system: NCI-H522
SF-295 = system: SF-295
MDA-MB-231 = system: MDA-MB-231
OVCAR-3 = system: OVCAR-3
SR = system: SR
KM12 = system: KM12
SK-MEL-5 = system: SK-MEL-5
TK-10 = system: TK-10
RXF 393 = system: RXF 393
DU-145 = system: DU-145
ACHN = system: ACHN
MDA-MB-435 = system: MDA-MB-435
A549 = system: A549
A498 = system: A498

Measured: GI50

Cc1ccc(S(=O)(=O)Oc2cc(S(=O)(=O)O)cc3cc(S(=O)(=O)O)cc(N)c23)cc1
inactive: OVCAR-5 > 100 µM | HT-29 > 100 µM | EKVX > 100 µM | CCRF-CEM > 100 µM | SF-268 > 100 µM | CAKI-1 > 100 µM | NCI-H522 > 100 µM | SF-295 > 100 µM | MDA-MB-231 > 100 µM | OVCAR-3 > 100 µM | SR > 100 µM | KM12 > 100 µM | SK-MEL-5 > 100 µM | TK-10 > 100 µM | RXF 393 > 100 µM | DU-145 > 100 µM | ACHN > 100 µM | MDA-MB-435 > 100 µM | A549 > 100 µM | A498 > 100 µM

CC(C)=CCc1c(O)cc2oc(-c3ccc(O)cc3O)cc(=O)c2c1O
inactive: OVCAR-5 31 µM | HT-29 23.1 µM | EKVX 42.3 µM | CCRF-CEM 8.11 µM | SF-268 38.8 µM | CAKI-1 28.5 µM | NCI-H522 22.3 µM | SF-295 31.6 µM | MDA-MB-231 26.4 µM | OVCAR-3 21.8 µM | SR 18.2 µM | KM12 19.5 µM | SK-MEL-5 19.9 µM | TK-10 22 µM | RXF 393 26.4 µM | DU-145 29.3 µM | ACHN 26.9 µM | MDA-MB-435 26.4 µM | A549 28.5 µM | A498 44.2 µM

CC/C(Cl)=N\OC(=O)Nc1ccc(F)c([N+](=O)[O-])c1
inactive: OVCAR-5 22.7 µM | HT-29 24.9 µM | EKVX 19.2 µM | CCRF-CEM 2.59 µM | SF-268 16.9 µM | CAKI-1 2.85 µM | NCI-H522 1.93 µM | SF-295 20.7 µM | MDA-MB-231 18.2 µM | OVCAR-3 5.08 µM | SR > 39.5 µM | KM12 17.5 µM | SK-MEL-5 12.4 µM | TK-10 11.6 µM | RXF 393 16.7 µM | DU-145 19.5 µM | ACHN 1.92 µM | MDA-MB-435 16.3 µM | A549 20.5 µM | A498 19.9 µM

NCc1ccc(O)c(O)c1O
inactive: OVCAR-5 17.3 µM | HT-29 16.9 µM | EKVX 39.7 µM | CCRF-CEM 10.9 µM | SF-268 28.3 µM | CAKI-1 29.3 µM | NCI-H522 > 59 µM | SF-295 25.7 µM | MDA-MB-231 19.7 µM | OVCAR-3 22.1 µM | SR 30.1 µM | KM12 24.3 µM | SK-MEL-5 21.7 µM | TK-10 > 100 µM | RXF 393 40.7 µM | DU-145 62.5 µM | ACHN 23.4 µM | MDA-MB-435 18 µM | A549 27.6 µM | A498 75.3 µM

C[N+]12CCCCC1C(CN1C(=O)Cc3c4ccccc4c(c4ccccc34)CC1=O)CCC2 (stereo not given)
inactive: OVCAR-5 > 100 µM | HT-29 > 100 µM | EKVX > 100 µM | CCRF-CEM > 100 µM | SF-268 > 100 µM | CAKI-1 > 100 µM | NCI-H522 > 100 µM | SF-295 > 100 µM | MDA-MB-231 > 100 µM | OVCAR-3 > 100 µM | SR > 100 µM | KM12 > 100 µM | SK-MEL-5 > 100 µM | TK-10 > 100 µM | RXF 393 > 100 µM | DU-145 > 100 µM | ACHN > 100 µM | MDA-MB-435 > 100 µM | A549 > 100 µM | A498 > 100 µM

CC(=O)/C=C/C=C(\C)CC/C=C(\C)CC(C)C
inactive: OVCAR-5 61.2 µM | HT-29 30.1 µM | EKVX 37.3 µM | CCRF-CEM 13.5 µM | SF-268 39.7 µM | CAKI-1 40.8 µM | NCI-H522 17.6 µM | SF-295 30.8 µM | MDA-MB-231 40.9 µM | OVCAR-3 26.4 µM | SR 16.1 µM | KM12 27.7 µM | SK-MEL-5 18.5 µM | TK-10 > 100 µM | RXF 393 16.2 µM | DU-145 58.6 µM | ACHN 29.9 µM | MDA-MB-435 27.9 µM | A549 34 µM | A498 22 µM

O=C1N/C(=N/N=C/c2ccccc2)N/C1=C\c1cccs1
inactive: OVCAR-5 28.6 µM | HT-29 19.1 µM | EKVX 21.5 µM | CCRF-CEM 13.3 µM | SF-268 9.89 µM | CAKI-1 16.7 µM | NCI-H522 1.98 µM | SF-295 17.4 µM | MDA-MB-231 18.6 µM | OVCAR-3 15.4 µM | SR 28.2 µM | KM12 18.4 µM | SK-MEL-5 7.53 µM | TK-10 23.1 µM | RXF 393 17.7 µM | DU-145 18.5 µM | ACHN 15.9 µM | MDA-MB-435 7.52 µM | A549 25.6 µM | A498 13 µM

Nc1nc(=O)c2c([nH]1)NCC(CCNc1ccc(C(=O)O)cc1)N2 (stereo not given)
inactive: OVCAR-5 > 100 µM | HT-29 > 100 µM | EKVX > 100 µM | CCRF-CEM > 100 µM | SF-268 > 100 µM | CAKI-1 > 100 µM | NCI-H522 > 100 µM | SF-295 > 100 µM | MDA-MB-231 > 100 µM | OVCAR-3 > 100 µM | SR > 100 µM | KM12 > 100 µM | SK-MEL-5 > 100 µM | TK-10 > 100 µM | RXF 393 > 100 µM | DU-145 > 100 µM | ACHN > 100 µM | MDA-MB-435 > 100 µM | A549 > 100 µM | A498 > 100 µM

C=C1C(=O)[C@]23C[C@H]1C[C@@H](O)[C@H]2[C@]1(COC3=O)[C@@H](OC(C)=O)CC[C@@](C)(COC(C)=O)[C@H]1C=O [LOXOTHYRIN A]
inactive: OVCAR-5 > 50 µM | HT-29 > 50 µM | EKVX > 50 µM | CCRF-CEM 7.28 µM | SF-268 13.8 µM | CAKI-1 9.38 µM | NCI-H522 7.28 µM | SF-295 > 50 µM | MDA-MB-231 > 50 µM | OVCAR-3 > 50 µM | SR 28.4 µM | KM12 > 50 µM | SK-MEL-5 > 50 µM | TK-10 > 50 µM | RXF 393 17.2 µM | DU-145 > 50 µM | ACHN > 50 µM | MDA-MB-435 > 50 µM | A549 > 50 µM | A498 > 50 µM
